Test results reported in the supplement of paper PMC10307832.

Compound: C1CN(CCC1C(C2=CC3=C(C=C2)OCO3)(C4=CC5=C(C=C4)OCO5)O)C(=O)OC6=CC=C(C=C6)[N+](=O)[O-] [JZL-184]
Assay: relative viability (nuclei count vs DMSO), 5 days (fraction); higher = more cells survive
Outline: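 Viability was read as treated-well nuclei divided by vehicle-well nuclei, using the median across plates. Lung cancer cell lines in 1536-well plates were kept overnight at 37 °C, pinned with five √10-spaced library-drug doses, and after 5 days were Hoechst-stained, imaged at 4× and counted in MetaXpress. Plates passed only with control CV below 25% and at least one doubling.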

Row | Cell Line | relative viability (0.04 µM) | relative viability (0.4 µM) | relative viability (1.265 µM) | relative viability (4 µM)
1 | 201T | 0.997 | 0.992 | 1.01 | 0.953
2 | A549 | 1.1 | 0.928 | 1.01 | 0.957
3 | A-427 | 1.09 | 0.982 | 1.12 | 0.948
4 | ABC-1 | 0.868 | 0.901 | 1.09 | 1.15
5 | BEN | 1.1 | 0.949 | 1.21 | 1.01
6 | CAL-12T | 1.23 | 0.856 | 1.13 | 0.949
7 | COR-L23 | 1.2 | 1.06 | 1.03 | 0.971
8 | COR-L 105 | 1.13 | 0.876 | 1.1 | 0.812
9 | ChaGo-K-1 | 1.12 | 0.934 | 1.03 | 0.957
10 | EKVX | 1.02 | 0.979 | 1.04 | 0.927
11 | EMC-BAC-2 | 1.05 | 0.944 | 1.12 | 0.922
12 | EPLC-272H | 1 | 0.914 | 1.15 | 0.937
13 | H3255 | 1.1 | 0.871 | 1.07 | 0.885
14 | HARA | 0.995 | 0.814 | 1.05 | 0.831
15 | HCC-15 | 1.07 | 1.03 | 1.08 | 0.978
16 | HCC-44 | 1.05 | 0.923 | 1.06 | 0.983
17 | HCC-78 | 0.793 | 0.806 | 1.13 | 1.01
18 | HCC-366 | 1.09 | 0.958 | 1.06 | 1.02
19 | HCC-827 | 1.02 | 0.989 | 1.02 | 1.04

Row | Cell Line | relative viability (0.04 µM) | relative viability (0.4 µM) | relative viability (1.265 µM) | relative viability (4 µM)
20 | HOP-62 | 1.08 | 1.01 | 1.04 | 1.01
21 | IA-LM | 1.31 | 0.879 | 1.03 | 1
22 | LC-2-ad | 1.18 | 0.96 | 1.13 | 0.982
23 | LCLC-97TM1 | 1.13 | 0.852 | 1.05 | 0.84
24 | LCLC-103H | 0.956 | 0.988 | 1.04 | 0.986
25 | LK-2 | 1.13 | 0.928 | 1.21 | 0.944
26 | LOU-NH91 | 1.02 | 0.879 | 0.984 | 0.945
27 | LU99A | 1.01 | 0.774 | 1.18 | 0.968
28 | LXF-289 | 1.08 | 0.926 | 1.02 | 0.959
29 | NCI-H23 | 1.14 | 0.767 | 1.18 | 0.998
30 | NCI-H322M | 0.951 | 0.926 | 0.982 | 0.774
31 | NCI-H358 | 1 | 0.824 | 0.994 | 0.916
32 | NCI-H441 | 1.14 | 0.814 | 1.02 | 0.998
33 | NCI-H460 | 1.06 | 0.884 | 0.974 | 0.975
34 | NCI-H520 | 0.793 | 0.924 | 1.07 | 0.93
35 | NCI-H522 | 1.24 | 0.896 | 1.05 | 0.901
36 | NCI-H596 | 1.21 | 0.875 | 1.01 | 0.932
37 | NCI-H647 | 1.04 | 0.945 | 1.06 | 0.887
38 | NCI-H650 | 1.03 | 0.762 | 1.1 | 0.979
